The values below come from patent publication US7358236B1 (priority 2002, dated 2008).

Read-outs that look alike come from different tables or passages of the source.

The test system of data set [1] is heart tissue. The experiment in a line: Histopathology of heart tissue after single dose VTA, and protective effect of propranolol. As to conditions: for Heart histopathology with propranolol pretreatment: 2 mg/kg Propranolol Hydrochloride 1 hour prior to CA-4DP 100 mg/kg.
For data set [2] the following is noted: rat, in vivo.
For data set [3], the system named is tumor blood flow. As to conditions: cited from earlier work.

In the case of `CC(C)NCC(O)COc1cccc2ccccc12` (racemic) [propranolol, 1-[ispropylamino]3-[1-napthyloxy]-2-propanol hydrocholoride], where the note is “antihypertensive co-administered with CA-4DP 30 mg/kg i.p., 1 hour after CA-4DP dosing”, the MABP is listed as 80.2 mmHg. Besides, the “Heart Rate” value (antihypertensive co-administered with CA-4DP 30 mg/kg i.p., 1 hour post CA-4DP dosing) was determined as 248.5 bpm. Moreover, the “Heart histopathology with propranolol pretreatment” value is “no abnormal CA-4DP-related histopathology” in data set [1] (6 or 24 hours post-treatment) and “cardiac tissue remained healthy” in data set [1] (4 days).
“Combretastatin A-4 Disodium Phosphate Prodrug [CA-4DP]” registered an MABP stabilized level in data set [2] of 110 mmHg. Also, for the setting “rat, in vivo”, the “Heart Rate” value is given as 265.6 bpm. Also, the “Increase of MABP versus control animals” value (rat, in vivo, ip, 30 mg/kg) was 72%. The MABP (rat, in vivo, ip, 30 mg/kg) is 107.9 mmHg. In addition, the “Histopathological changes in the heart” value is “necrosis and degeneration of cardiac cells in some localized areas” in data set [1] (CA-4DP 100 mg/kg i.v. single dose, overall); “some blood vessels in the heart tissue were observed dilated” in data set [1] (CA-4DP 100 mg/kg i.v., at 6 hours); “Inflammation cells infiltrated the heart tissue” in data set [1] (CA-4DP 100 mg/kg i.v., at 24 hours); “loss of striation, fragmentation, a manifestation of necrosis and degeneration” in data set [1] (CA-4DP 100 mg/kg i.v., at 4 days). Besides, the “Blood flow in vital tissues (heart, kidney, small intestine)” value in data set [3] (100 mg/kg, rat) was “maintained at normal levels”. In data set [3] (100 mg/kg, rat), the “Reduction in tumor blood flow” value was 100 fold. In addition, the “Mean Arterial Blood Pressure change” value in data set [3] (almost immediately following administration) is on record as “substantial but transient increase”.
